According to patent US20250002472A1, “PYRIDYL-CONTAINING COMPOUND” (CHIA TAI TIANQING PHARMACEUTICAL GROUP CO., LTD., priority 2021, published 2025):

Tests used:
[1] = In vitro liver microsomal stability, human; assay type: in vitro ADME; conditions: human liver microsomes 0.5 mg/mL, NADPH, 37° C.
Experimental: (§1) Liver microsome incubation samples were prepared by mixing a PBS buffer (pH=7.4), a liver microsome solution (0.5 mg/mL), a test compound, and an NADPH+MgCl2 solution, and incubated at 37° C. and 300 rpm for 1 h. Zero-hour samples were prepared by mixing a PBS buffer (pH=7.4), a liver microsome solution (0.5 mg/mL), and a test compound. An acetonitrile solution containing an internal standard was added to the samples, and supernatants were prepared by protein precipitation, diluted, and then assayed by LC/MS/MS.

[2] = In vitro liver microsomal stability, mouse; assay type: in vitro ADME; conditions: mouse liver microsomes 0.5 mg/mL, NADPH, 37° C.
Experimental: as §1

Mouse pharmacokinetics = assay type: in vivo; conditions: ICR, plasma, po, 3 mg/kg, mice, intragastric 3 mpk vs intravenous 1 mpk, read-out: Absolute bioavailability F (%)
Experimental: ICR mice weighing 18-22 g were randomized into groups of 9 mice per group after 3-5 days of acclimatization and then administered intragastrically at a dose of 3 mg/kg.
Plasma samples to be tested were prepared by taking blood from the orbit at time points of 15 min, 30 min, 1 h, 2 h, 4 h, 6 h, 8 h, 10 h, and 24 h.
20 μL of each plasma sample to be tested and a standard curve sample were taken, and an acetonitrile solution containing an internal standard was added. A supernatant was obtained by protein precipitation, diluted, and then assayed by LC/MS/MS.
Pharmacokinetic parameters were fitted using a non-compartmental model.

[3] = test system: OCI-LY10 human diffuse large B-cell lymphoma NOD-SCID mouse subcutaneous xenograft tumor; assay: Efficacy evaluation in OCI-LY10 NOD-SCID mouse subcutaneous xenograft tumor model; assay type: in vivo, NOD-SCID mice
Text: Efficacy evaluation in OCI-LY10 human diffuse large B-cell lymphoma NOD-SCID mouse subcutaneous xenograft tumor model
(1) SPF female NOD-SCID mice (source: Jiangsu Huachuang Xinnuo Pharmaceutical Technology Co., Ltd.) were inoculated subcutaneously at the right side armpit with OCI-LY10 human diffuse large B-cell lymphoma cells at 1×10^7 cells/mouse. When the mean tumor volume reached about 200 mm^3, the animals were divided into a control group (vehicle control group) and treatment groups (compound groups).
The administration dose included 1 mg/kg, 2 mg/kg, and 4 mg/kg, and the administration frequency was once daily. The day of grouping was defined as day 0, and intragastric administration was started on day 0 for 21 consecutive days.
Alternatively, the administration dose was 4 mg/kg, and the administration frequency was 5 times per week. The day of grouping was defined as day 0, and intragastric administration was started on day 0 five times per week for two consecutive weeks.
The tumor volume was measured once every 3 days, and meanwhile, the mice were weighed and the data were recorded; the general behavior of the mice was observed and recorded every day. After the experiment was completed, the tumors were removed, weighed, and photographed.
The detection index and the calculation formula are as follows:
Tumor volume TV (mm^3)=½×(a×b^2), wherein a is the long diameter of the tumor, and b is the short diameter of the tumor; • Relative tumor volume RTV=TVt/TV0, wherein TV0 is the tumor volume on day 0, and TVt is the tumor volume at each measurement; • Relative tumor proliferation rate T/C (%)=(TRTV/CRTV)×100%, wherein TRTV is RTV of the treatment group, and CRTV is RTV of the vehicle control group; • Tumor growth inhibition rate TGI (%)=(1−TW/TW0)×100%; wherein TW is the tumor weight of the treatment group, and TW0 is the tumor weight of the vehicle control group; • Weight change rate WCR (%)=(Wtt−Wt0)/Wt0×100%, wherein Wt0 is the body weight of the mouse on day 0, and Wtt is the body weight of the mouse at each measurement.

Human liver microsome Residuals at 60 min (%) [1] [%]	Mouse liver microsome Residuals at 60 min (%) [2] [%]	Compound	other results
98.75	89.94	N#Cc1cncc(/C(=C\n2cnc(-c3cc(C4CC4)nc(C(F)(F)F)c3)n2)C(N)=O)c1 [Compound 30]	–
88.75	90.60	NC(=O)/C(=C/n1cnc(-c2cc(C3CC3)nc(C(F)(F)F)c2)n1)c1cnc(NCC(F)(F)F)nc1 [Compound 16]	–
102.54	94.24	NC(=O)/C(=C/n1cnc(-c2cc(C3CC3)nc(C(F)(F)F)c2)n1)c1cncc(F)c1 [Compound 27]	–
104.79	98.21	NC(=O)/C(=C/n1cnc(-c2cc(C3CC3)nc(C(F)(F)F)c2)n1)c1cnc2cccnc2c1 [Compound 33]	–
100.32	95.08	NC(=O)/C(=C/n1cnc(-c2cc(C3CC3)nc(C(F)(F)F)c2)n1)c1cccnc1F [Compound 32]	–
101.21	87.79	COc1ccc(/C(=C\n2cnc(-c3cc(C4CC4)nc(C(F)(F)F)c3)n2)C(N)=O)cn1 [Compound 34]	–
93.23	91.15	NC(=O)/C(=C/n1cnc(-c2cc(C3CC3)nc(C(F)(F)F)c2)n1)c1cncnc1 [Compound 13]	–
95.75	93.99	N#Cc1cncc(/C(=C\n2cnc(-c3cc(C(F)(F)F)nc(C(F)(F)F)c3)n2)C(N)=O)c1 [Compound 10]	–
106.91	89.18	NC(=O)/C(=C/n1cnc(-c2cc(C3CC3)nc(C(F)(F)F)c2)n1)c1ccc(F)nc1 [Compound 39]	–
96.64	90.27	NC(=O)/C(=C/n1cnc(-c2cc(C3CC3)nc(C(F)(F)F)c2)n1)c1cnc2ccccc2c1 [Compound 26]	–

The next lines start with the molecule.

Compound	Human liver microsome Residuals at 60 min (%) [1] [%]	Mouse liver microsome Residuals at 60 min (%) [2] [%]	other results
CC(F)(F)CNc1ncc(/C(=C\n2cnc(-c3cc(C4CC4)nc(C(F)(F)F)c3)n2)C(N)=O)cn1 [Compound 15]	–	–	bioavailability (Mouse pharmacokinetics): 94.8%
NC(=O)/C(=C/n1cnc(-c2cc(C(F)(F)F)nc(C(F)(F)F)c2)n1)c1cnc(NCC(F)F)nc1 [Compound 2]	–	–	bioavailability (Mouse pharmacokinetics): 104%
NC(=O)/C(=C/n1cnc(-c2cc(C3CC3)nc(C(F)(F)F)c2)n1)c1cnc(NCC(F)F)nc1 [Compound 14]	80.48	83.14	–
C[C@@H](Nc1ncc(/C(=C\n2cnc(-c3cc(C4CC4)nc(C(F)(F)F)c3)n2)C(N)=O)cn1)C(F)(F)F [Compound 17]	93.92	95.11	–
C[C@@H](Nc1ncc(/C(=C\n2cnc(-c3cc(C(F)(F)F)nc(C(F)(F)F)c3)n2)C(N)=O)cn1)C(F)(F)F [Compound 5]	97.64	99.03	–
NC(=O)/C(=C/n1cnc(-c2cc(C(F)(F)F)nc(C(F)(F)F)c2)n1)c1cnc(NCC(F)(F)F)nc1 [Compound 4]	100.33	93.27	–
Cc1ccc(/C(=C\n2cnc(-c3cc(C(F)(F)F)nc(C(F)(F)F)c3)n2)C(N)=O)cn1 [Compound 21]	–	–	bioavailability (Mouse pharmacokinetics): 97.3%; Weight change rate (%) (mean ± SD) ([3]; Table 4, 2 mg/kg intragastric, Day 21 of assay): −2.0 ± 6.5%
Cc1ccc(/C(=C\n2cnc(-c3cc(C4CC4)nc(C(F)(F)F)c3)n2)C(N)=O)cn1 [Compound 38]	–	–	bioavailability (Mouse pharmacokinetics): 112%
NC(=O)/C(=C/n1cnc(-c2cc(C(F)(F)F)nc(C(F)(F)F)c2)n1)c1cncc(F)c1 [Compound 8]	101.7	98.98	–
NC(=O)/C(=C/n1cnc(-c2cc(C(F)(F)F)nc(C(F)(F)F)c2)n1)c1cnc2ccccc2c1 [Compound 11]	–	–	Weight change rate (%) (mean ± SD) ([3]; Table 5, 4 mg/kg intragastric, Day 18 of assay): 0.6 ± 8.1%
CC(F)(F)CNc1ncc(/C(=C\n2cnc(-c3cc(C(F)(F)F)nc(C(F)(F)F)c3)n2)C(N)=O)cn1 [Compound 3]	–	–	bioavailability (Mouse pharmacokinetics): 114%
NC(=O)/C(=C/n1cnc(-c2cc(C(F)(F)F)nc(C(F)(F)F)c2)n1)c1cnc2cccnc2c1 [Compound 25]	–	–	Weight change rate (%) (mean ± SD) ([3]; Table 4, 4 mg/kg intragastric, Day 21 of assay): 1.7 ± 5.3%
